From patent publication US6750378B2, “Maize H3C4 promoter combined with the first intron of rice actin, chimeric gene comprising it and transformed plant” (Rhone-Poulenc Agro, priority 1997, dated 2004)

What was measured:
[1] = system: maize lines transformed with corresponding gene with maize adh I intron; assay: Comparative study of herbicide tolerance, maize lines transformed with the corresponding gene with maize adh I intron; type: in vivo; details: 20 maize lines, spraying 200 g of active material per hectare (600 μg per tub)
Procedure: (§1) 800 ml of Fontainebleau sand are placed in a tub of sides 15×20 cm. These tubs are then sprinkled with water and kept moist by supplying a nutrient solution consisting of 5 ml of Quinoligo (Quinoline) per liter of water. Twenty maize seeds are placed in the tubs, which are then treated with isoxaflutole by spraying at a rate of 100 g of active material per hectare (300 μg of active material per tub). The tubs are then cultured in a greenhouse. The phytotoxicity is determined 14 [lacuna] after planting. […] A comparative study was carried out with 20 maize lines transformed according to the invention and 20 maize lines transformed with a corresponding gene for which the sequence encoding the first intron of rice actin has been replaced with the sequence encoding the maize adh I intron. After treating by spraying very high doses of isoxafutole at a rate of 200 g of active material per hectare (600 μg of active material per tub), the following results are obtained: […]

[2] = system: maize lines transformed according to the invention (H3C4 promoter + first intron of rice actin); assay: Comparative study of herbicide tolerance, maize lines transformed according to the invention (rice actin intron); type: in vivo; details: 20 maize lines, spraying 200 g of active material per hectare (600 μg per tub)
Procedure: as §1

CS(=O)(=O)c1cc(C(F)(F)F)ccc1C(=O)c1cnoc1C1CC1 [isoxaflutole]
lines tolerant [1]: 3/20
lines tolerant [2]: 8/20
